Tests used:
[1] = tested on: EV71 M.A.V. (mouse-adapted strain); assay: EV71 M.A.V. TCID50 in RD cells; format: cell-based, Enterovirus 71
Source text: EV71 M.A.V. in 10-fold serial dilutions was used to infect RD cells at different E02 concentrations. After cultured for 3-4 days, CPE was observed under optical microscope, and stained with crystal violet, to calculate 50% tissue culture infective dose. Specific steps are similar to that for testing corresponding TCID50 of Example 1.

[2] = tested on: EV71 M.A.V. (mouse-adapted strain); assay: EV71 M.A.V. PFU in RD cells; format: cell-based, Enterovirus 71; conditions: Enterovirus A, read-out: EC50 to reduce EV71 M.A.V. PFU in RD cells
Experimental: EV71 M.A.V. was used to infect RD cells cultured in 12-well plates at different E02 concentrations. After cultured for 5 to 7 days, stained and plaque-forming units were calculated. Detailed procedures were the same as the corresponding PFU testing method of Example 1.

[3] = tested on: EV71 clinical isolate (EV71 FY 573); assay: EV71 infection in ICR newborn mice, serum viral load; format: in vivo; conditions: 50 mg/kg E02 intraperitoneally; 5 days after infection; infection group average 15.0
Experimental: EV71 clinical isolate (EV71 FY 573) was used to infect three-day-old newborn ICR mice to test E02's efficacy to inhibit EV71 in vivo. Test mice were divided into three groups: drug group, infection group, and placebo group. When mice were two-day-old, drug group were intraperitoneally injected with 50 μl of E02 at a dose of 50 mg/kg. Infection group and placebo group were intraperitoneally injected with 50 μl of DMEM. When three-day-old, drug group was intraperitoneally injected with a mixture (50 μl) of E02 at a dose of 50 mg/kg and EV71 clinical isolate at a dose of 5×10^7 TCID50. Infection group was injected with a mixture of 5×10^7 TCID50 viruses (25 μl) and 25 μl of DMEM. Placebo group was injected with 50 μl of DMEM.
5 days after infection, blood was collected and serum was separated. Viral RNA in serum was extracted (viral RNA extraction kit, QIAGEN QIAamp Viral RNA Mini Kit, cat #52906). Copies of EV71 5′UTR gene and GAPDH gene were detected using one-step real-time quantitative RT-PCR kit (QIAGEN QuantiTect SYBR Green RT-PCR Kit) in ABI 7900HT 384-well plates PCR system.

[4] = tested on: EV71 clinical isolate SH-TS; assay: EV71 SH-TS replication in RD cells, quantitative RT-PCR; format: cell-based, Enterovirus 71; conditions: MOI 0.1, 46 h
Experimental: (§1) RD cells were infected with EV71 SH-TS or SH-RS at different E02 concentrations, at the MOI of 0.1. After cultured for 46 h, viral RNA in culture supernatant was extracted. Relative EV71 viral load was determined by quantitative RT-PCR. See Example 1 for specific procedures of quantitative RT-PCR.

[5] = tested on: EV71 clinical isolate SH-RS; assay: EV71 SH-RS replication in RD cells, quantitative RT-PCR; format: cell-based, Enterovirus 71; conditions: MOI 0.1, 46 h
Experimental: as §1

[6] = tested on: EV71 clinical isolate SH-TS; assay: EV71 SH-TS PFU in RD cells; format: cell-based, Enterovirus 71; conditions: Enterovirus A, 168 h, 5~7 days, read-out: EC50 to reduce EV71 SH-TS PFU in RD cells
Experimental: RD cells cultured in 12-well plates were infected with EV71 SH-TS or SH-RS at different E02 concentrations. After cultured for 5˜7 days, cells were stained and plaque-forming units were calculated. Same procedure is as detailed in “3. E02 reduces EV71 plaque forming units in RD cells” of Example 1.

[7] = tested on: EV71 clinical isolate EV71 FY573; assay: Time of E02 addition assay, EV71 in RD cells; format: cell-based, Enterovirus 71; conditions: 32 μM of E02, MOI 10, 18 h
Experimental: RD cells in 96-well plates were infected with MOI 10 EV71 clinical isolate EV71 FY573. In three periods at prior to, during, and post infection, 32 μM of E02 (dissolved in DMEM) or DMEM were added, EV71 replication was measured to determine the stage, in which E02 inhibits EV71 infection. Steps are detailed as follows:
(1) Cell seeding: 24 h prior to infection, RD cells were seeded in 96-well cell culture plates, 5×10^4 cells per well;
(2) Cells pre-incubated with drug: cell culture medium was removed from 96-well plates, each well was added 100 μl of DMEM, and then added 11 μl of 320 μM E02 solution (cell group treated with drug) or 11 μl of DMEM (cell group without drug treatment), incubated at 37° C. for 1 h.
(3) Virus pre-incubated with drug: virus stock solution was diluted to 5×10^6 TCID50/ml with DMEM, dispensed to 96-well plates at 100 μl per well, and 11 μl of 320 μM E02 solution (B and C groups) or 11 μl of DMEM (A and F groups) were added, and incubated at 37° C. for 1 h.
(4) Infection: After cells and virus were incubated for one hour, drug was discarded from cell culture plates. 111 μl of pre-incubated virus with drug (B and C groups) or DMEM (A and F groups) was transferred to cell culture plates. After 100 μl of virus solution was transferred to D and E groups, 11 μl of 320 μM E02 was added, and incubated at 37° C. for 1 h.
(5) One hour after viral infection of cells, virus and drug mixture was discarded from cell culture plates. Cells were washed twice with 50 μl of DMEM. 180 μl per well of DMEM containing 2% FBS, 20 μl of 320 μM E02 solution (B, E, and F groups) or 20 μl of DMEM (A, C, and D groups) were added. […]
(7) Viral load determination: EV71 5′UTR gene was detected using ABI Taqman one-step RT-PCR kit (ABI taqMan® One-Step RT-PCR, Cat #4309169) in ABI 7900HT 384-well plates PCR system. […]
(8) PCR standard curves were used to convert CT values of PCR to viral load (standard curves were obtained by CT values determined by performing RT-PCR on RNA extracted from viruses with defined titers at 10-fold serial dilutions). […]

Cc1ccc(C(=O)Nc2ccc(S(=O)(=O)O)c3cc(S(=O)(=O)O)cc(S(=O)(=O)O)c23)cc1NC(=O)c1cccc(NC(=O)Nc2cccc(C(=O)Nc3cc(C(=O)Nc4ccc(S(=O)(=O)O)c5cc(S(=O)(=O)O)cc(S(=O)(=O)O)c45)ccc3C)c2)c1 [E02, Suramin Sodium]
inhibition of EV71 mouse adapted strain infection of RD cells ([1]; 10 μM of E02): completely inhibit
EC50 ([1]; Enterovirus A, EV71, RD, read-out: EC50 to reduce EV71 M.A.V. TCID50 in RD cells): 8.07 µM
EC50 [2]: 2 µM
RNA loading ratio between EV71 and GAPDH in serum, average value of drug group [3]: 1.8
concentration reducing EV71 replication by 10-fold [4]: 7.14 μM
concentration reducing EV71 replication by 100-fold [4]: 25.35 µM
concentration reducing EV71 replication by 10-fold [5]: 4.41 μM
concentration reducing EV71 replication by 1000-fold [5]: 16.29 µM
EC50 [6]: 2.24 µM
inhibition of EV71 infection, E02 added after infection (F) [7]: could not inhibit EV71 infection
inhibition of EV71 infection, E02 added during infection (D, E) [7]: can inhibit EV71 infection
inhibition of EV71 infection, E02 added prior to infection (B, C) [7]: can inhibit EV71 infection
